The text below walks through data of ChEMBL document CHEMBL5236635, “Structure-Based Drug Design and Synthesis of Novel N-Aryl-2,4-bithiazole-2-amine CYP1B1-Selective Inhibitors in Overcoming Taxol Resistance in A549 Cells” (J Med Chem, 2022).

Assay [1] has as its system NCI-H460. Nature of the assay: Inhibition of DMBA-induced CYP1B1 overexpression in human NCI-H460 cells assessed as increase in FAK level incubated for 24 hrs by densitometry analysis. Type of assay: functional, cell-based. The settings on record: dose 5.0 µM.
Assay [2] deals with A549. Nature of the assay: Inhibition of DMBA-induced CYP1B1 overexpression in human A549 cells assessed as increase in Paxillin level incubated for 24 hrs by densitometry analysis. The settings on record: dose 5.0 µM. Format: functional, cell-based.
In assay [3] the test system is A549. Nature of the assay: Inhibition of DMBA-induced CYP1B1 overexpression in human A549 cells assessed as increase in SRC level at 5 uM incubated for 24 hrs by densitometry analysis. Format: functional, cell-based.
The subject of assay [4] is A549. Description: Inhibition of cell migration in DMBA-induced human A549 cells at 5 uM incubated for 48 hrs by inverted microscopic analysis. Format: functional, cell-based.
The subject of assay [5] is A549. Description: Inhibition of DMBA-induced CYP1B1 overexpression in human A549 cells assessed as increase in snail level incubated for 24 hrs by densitometry analysis. The settings on record: dose 5.0 µM. Type of assay: functional, cell-based.
Assay [6] deals with NCI-H460. Description: Inhibition of DMBA-induced CYP1B1 overexpression in human NCI-H460 cells assessed as increase in snail level incubated for 24 hrs by densitometry analysis. The settings on record: dose 5.0 µM. Format: functional, cell-based.
Assay [7] deals with NCI-H460. Description: Inhibition of DMBA-induced CYP1B1 overexpression in human NCI-H460 cells assessed as increase in N-cadherin level incubated for 24 hrs by densitometry analysis. Type of assay: functional, cell-based. The settings on record: dose 5.0 µM.
Assay [8] deals with NCI-H460. Nature of the assay: Inhibition of DMBA-induced CYP1B1 overexpression in human NCI-H460 cells assessed as decrease in E-cadherin level incubated for 24 hrs by densitometry analysis. Format: functional, cell-based. The settings on record: dose 5.0 µM.
Assay [9] concerns NCI-H460. Description: Inhibition of DMBA-induced CYP1B1 overexpression in human NCI-H460 cells assessed as effect on E-cadherin level at 5 uM incubated for 24 hrs by densitometry analysis. Format: functional, cell-based.
For assay [10], the system named is A549. Nature of the assay: Inhibition of DMBA-induced CYP1B1 overexpression in human A549 cells assessed as effect on E-cadherin level at 5 uM incubated for 24 hrs by densitometry analysis. Type of assay: functional, cell-based.
Assay [11] deals with NCI-H460. Description: Inhibition of DMBA-induced CYP1B1 overexpression in human NCI-H460 cells assessed as decrease in Vimentin level at 5 uM incubated for 24 hrs by densitometry analysis. Type of assay: functional, cell-based.
For assay [12], the system named is A549. Nature of the assay: Inhibition of DMBA-induced CYP1B1 overexpression in human A549 cells assessed as decrease in Vimentin level at 5 uM incubated for 24 hrs by densitometry analysis. Format: functional, cell-based.
Assay [13] has as its target T1, Cytochrome P450 1A2 (Homo sapiens, UniProt P05177).
T1 sequence (P05177 whole entry): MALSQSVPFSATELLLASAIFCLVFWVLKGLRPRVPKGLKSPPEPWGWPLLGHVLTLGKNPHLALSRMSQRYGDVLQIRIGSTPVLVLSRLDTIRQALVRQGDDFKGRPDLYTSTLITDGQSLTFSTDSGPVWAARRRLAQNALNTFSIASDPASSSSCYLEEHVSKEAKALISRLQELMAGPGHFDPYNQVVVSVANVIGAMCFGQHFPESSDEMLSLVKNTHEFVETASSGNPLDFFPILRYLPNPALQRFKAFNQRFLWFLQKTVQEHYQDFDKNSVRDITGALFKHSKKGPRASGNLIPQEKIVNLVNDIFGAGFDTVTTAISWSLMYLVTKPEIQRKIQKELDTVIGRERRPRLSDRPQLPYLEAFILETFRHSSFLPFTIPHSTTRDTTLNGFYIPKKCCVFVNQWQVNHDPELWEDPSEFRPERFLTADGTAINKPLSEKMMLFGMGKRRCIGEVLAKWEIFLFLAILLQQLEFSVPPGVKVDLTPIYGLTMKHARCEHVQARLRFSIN
Description: Inhibition of recombinant human CYP1A2 using 7-ethyl-0-resorufin as substrate incubated for 30 mins in presence of NADPH by EROD assay.

Assay [14] concerns A549/TR. Nature of the assay: Reversal of taxol resistance human A549/Taxol cells assessed as increase in sensitivity incubated for 72 hrs by MTT assay. Format: functional, cell-based. A general note: Tetrazolium assays rely on reduction of a dye to a coloured formazan, in cell work by metabolically active cells.
Assay [15] has as its system A549/TR. Description: Reversal of taxol resistance in human A549/Taxol cells assessed as increase in Rho123 accumulation at 5 uM incubated for 20 mins by multimode plate reader analysis. Format: functional, cell-based.
In assay [16] the test system is A549/TR. Nature of the assay: Reversal of taxol resistance in human A549/Taxol cells assessed as suppression of P-gp expression level at 5 uM incubated for 20 mins by multimode plate reader analysis. Type of assay: functional, cell-based.
Assay [17] concerns A549/Taxol. Nature of the assay: Inhibition of AKT pathway in human A549/Taxol cells assessed as decrease in phosphorylated AKT level at 5 uM incubated for 24 hrs. Type of assay: cell-based.
For assay [18], the target named is Proto-oncogene tyrosine-protein kinase Src (Homo sapiens) (UniProt P12931). Nature of the assay: Inhibition of SRC pathway in human A549/Taxol cells assessed as decrease in phosphorylated FAK level at 5 uM incubated for 24 hrs. Format: cell-based.
Chain of Proto-oncogene tyrosine-protein kinase Src (Homo sapiens) (P12931 2-536 limits assumed): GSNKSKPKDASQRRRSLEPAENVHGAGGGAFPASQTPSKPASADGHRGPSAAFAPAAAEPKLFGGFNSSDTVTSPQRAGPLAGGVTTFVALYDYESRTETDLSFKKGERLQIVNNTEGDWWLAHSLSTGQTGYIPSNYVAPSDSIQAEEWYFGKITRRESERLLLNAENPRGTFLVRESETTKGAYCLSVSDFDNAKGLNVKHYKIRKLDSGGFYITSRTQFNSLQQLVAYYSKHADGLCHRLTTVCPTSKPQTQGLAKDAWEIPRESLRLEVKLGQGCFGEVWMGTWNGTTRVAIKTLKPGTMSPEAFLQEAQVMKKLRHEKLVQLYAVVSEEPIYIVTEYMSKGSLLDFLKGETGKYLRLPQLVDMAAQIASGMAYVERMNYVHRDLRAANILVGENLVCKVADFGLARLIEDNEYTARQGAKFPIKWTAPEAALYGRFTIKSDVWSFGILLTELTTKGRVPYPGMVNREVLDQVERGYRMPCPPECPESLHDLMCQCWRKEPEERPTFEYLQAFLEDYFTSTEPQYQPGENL
For assay [19], the system named is A549. Description: Inhibition of DMBA induced taxol resistance in human A549 cells. Type of assay: functional, cell-based. Particulars: dose 2.5-10 µM.
In assay [20] the test system is A549/TR. Description: Synergistic antiproliferative activity against human A549/Taxol cells assessed as increase in taxol by measuring combination index at 3.75 uM incubated for 72 hrs in presence of 0.06 uM taxol by MTT assay. Format: functional.
Assay [21] deals with A549/TR. Nature of the assay: Synergistic antiproliferative activity against human A549/Taxol cells assessed as increase in taxol by measuring combination index at 3.75 uM incubated for 72 hrs in presence of 0.13 uM taxol by MTT assay. Type of assay: functional.
Assay [22] concerns A549/TR. Description: Synergistic antiproliferative activity against human A549/Taxol cells assessed as increase in taxol by measuring combination index at 3.75 uM incubated for 72 hrs in presence of 0.50 uM taxol by MTT assay. Format: functional.
Assay [23] relates to A549/TR. Description: Synergistic antiproliferative activity against human A549/Taxol cells assessed as increase in taxol by measuring combination index at 7.50 uM incubated for 72 hrs in presence of 0.06 uM taxol by MTT assay. Type of assay: functional. The settings on record: dose 7.5 µM.
Assay [24] deals with A549/TR. Nature of the assay: Synergistic antiproliferative activity against human A549/Taxol cells assessed as increase in taxol by measuring combination index at 7.50 uM incubated for 72 hrs in presence of 0.13 uM taxol by MTT assay. Type of assay: functional. The settings on record: dose 7.5 µM.
In assay [25] the test system is A549/TR. Nature of the assay: Synergistic antiproliferative activity against human A549/Taxol cells assessed as increase in taxol by measuring combination index at 15 uM incubated for 72 hrs in presence of 0.13 uM taxol by MTT assay. Type of assay: functional.
Assay [26] deals with A549/TR. Description: Synergistic antiproliferative activity against human A549/Taxol cells assessed as increase in taxol by measuring combination index at 15 uM incubated for 72 hrs in presence of 0.50 uM taxol by MTT assay. Format: functional.
Assay [27] has as its system A549/TR. Description: Reversal of taxol resistance in human A549/Taxol cells assessed as increase in Rho123 accumulation at 2.5 to 10 uM incubated for 20 mins by multimode plate reader analysis. Format: functional, cell-based. The settings on record: dose 2.5-10 µM.
Assay [28] deals with A549/TR. Nature of the assay: Inhibition of cell invasion in human A549/Taxol cells at 2.5 to 10 uM incubated for 18 hrs by optical microscopic analysis. The settings on record: dose 2.5-10 µM. Type of assay: functional, cell-based.
Assay [29] concerns the target Focal adhesion kinase 1 (Homo sapiens) (UniProt Q05397). Nature of the assay: Inhibition of FAK pathway in human A549/Taxol cells assessed as decrease in phosphorylated FAK level at 2.5 to 5 uM incubated for 24 hrs. Format: cell-based. The settings on record: dose 2.5-5 µM.
The subject of assay [30] is A549/TR. Description: Upregulation of E-cadherin expression level in human A549/Taxol cells at 2.5 to 10 uM incubated for 24 hrs by densitometry analysis. Particulars: dose 2.5-10 µM. Type of assay: functional, cell-based.
Assay [31] has as its system A549/TR. Nature of the assay: Downregulation of Vimentin expression level in human A549/Taxol cells at 2.5 to 10 uM incubated for 24 hrs by densitometry analysis. Particulars: dose 2.5-10 µM. Format: functional, cell-based.

The source made the active and inactive calls. The calls are words filed in the database; no cut-off is given here.

Chain of Focal adhesion kinase 1 (Homo sapiens) (Q05397 2-1052 limits assumed): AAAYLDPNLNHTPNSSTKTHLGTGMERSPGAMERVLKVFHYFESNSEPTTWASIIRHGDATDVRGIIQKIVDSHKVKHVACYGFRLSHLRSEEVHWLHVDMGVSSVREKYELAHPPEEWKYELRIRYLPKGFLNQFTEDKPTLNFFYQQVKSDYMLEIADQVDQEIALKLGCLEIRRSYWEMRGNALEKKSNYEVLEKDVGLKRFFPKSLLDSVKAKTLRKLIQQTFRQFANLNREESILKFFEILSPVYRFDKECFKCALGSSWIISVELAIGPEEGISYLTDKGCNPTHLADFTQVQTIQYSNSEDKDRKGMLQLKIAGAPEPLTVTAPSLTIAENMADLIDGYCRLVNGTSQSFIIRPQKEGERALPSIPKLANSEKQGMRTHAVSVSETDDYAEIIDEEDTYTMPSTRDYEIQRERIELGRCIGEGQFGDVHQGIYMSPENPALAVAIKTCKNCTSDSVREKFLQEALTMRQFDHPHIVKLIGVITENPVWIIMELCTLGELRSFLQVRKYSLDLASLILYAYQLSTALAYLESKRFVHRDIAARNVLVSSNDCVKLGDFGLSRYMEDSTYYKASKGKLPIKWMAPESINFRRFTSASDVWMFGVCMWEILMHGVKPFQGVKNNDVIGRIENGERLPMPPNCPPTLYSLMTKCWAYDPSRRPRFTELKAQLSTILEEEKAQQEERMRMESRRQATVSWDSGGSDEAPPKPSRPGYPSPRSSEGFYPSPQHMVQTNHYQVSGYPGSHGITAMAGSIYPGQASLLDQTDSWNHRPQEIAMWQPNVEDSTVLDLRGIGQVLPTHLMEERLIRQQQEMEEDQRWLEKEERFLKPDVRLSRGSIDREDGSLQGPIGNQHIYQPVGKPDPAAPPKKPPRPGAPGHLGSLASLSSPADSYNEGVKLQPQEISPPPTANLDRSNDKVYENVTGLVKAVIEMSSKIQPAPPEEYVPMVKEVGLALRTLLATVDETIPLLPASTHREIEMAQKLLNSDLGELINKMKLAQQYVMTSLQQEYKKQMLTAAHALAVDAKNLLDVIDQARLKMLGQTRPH

In general, IC50 refers to the concentration needed to halve the response being measured. Consider `COc1cc(/C=C/c2ccc(OC)cc2OC)cc(OC)c1`, for which the inhibition entry in [1], in [2], in assay [5], in assay [6], in assay [7] and in assay [8] was “Dose-Dependent Effect” throughout. The inhibition entry in assay [3], in assay [9], in assay [10], in [11] and in assay [12] was “inactive” throughout. For the same compound, the inhibition entry in [4], in [17] and in assay [18] was “Active” each time. In assay [13], the IC50 is 2390 nM. Also, the result in assay [14], in [15] and in assay [16] was Active.
On to `COc1cc(Nc2nc(-c3nc(-c4ccccc4F)cs3)cs2)cc(OC)c1`, for which the inhibition entry in assay [19] and in [28] was “Dose-Dependent Effect” in each case. In addition, the outcome in [14], in [27] and in assay [30] was Active. Moreover, the CI was 0.64 in assay [20]; 0.55 in assay [21]; 0.98 in [22]; 0.68 in assay [23]; 0.31 in assay [24]; 0.22 in assay [25]. In addition, the CI in assay [26] was determined as 0.4. In addition, the inhibition entry in [29] is “Active”. The result in assay [31] was inactive.
